# Results as given in patent US10918719B2, “Methods for cross-linking corneal collagen with verteporfin for the treatment of disorders of the eye” (Massachusetts Eye and Ear Infirmary, priority 2014, dated 2021).
# Legend:
# Human research corneas [1] = test: Gross observation of corneal rigidity / curvature; conditions: for rigidity on gross examination versus untreated corneas: cornea strips placed horizontally in a clamp (FIG. 3); for Gross observation: ex vivo treated corneas
# Procedure: (§1) The biomechanical properties of untreated corneas and corneas treated with R+UVA and V+NTL6 were measured using gross observation, compression, creep and tensile strength testing. The corneas were stored in Optisol GS and refrigerated at 4° C. until the time of testing.
# For example, when cornea strips were placed horizontally in a clamp, the tissue treated by V+NTL6 and by R+UVA were noted to have a more pronounced curvature than the untreated control group (FIG. 3).
# [2] = tested on: Human research corneas (de-epithelialized, 8.5-mm buttons) in collagenase A; test: Resistance to collagenase A digestion (time to total dissolution of cornea buttons); conditions: 0.3% collagenase A, 37° C.; for time to dissolution in collagenase A: untreated corneas 5.47 ± 0.21 hours; for Collagenase time to dissolution: 150 rpm, ex vivo de-epithelialized corneas, n=5, mean ± SD
# Source text: Human research corneas were obtained from Tissue Bank International (Baltimore, Md.) and North Carolina Eye Bank (Winston-Salem, N.C.). Riboflavin 5′-phosphate sodium salt hydrate, 20% (w/w) dextran solution (from Leuconostoc mesenteroides) and collagenase A (from Clostridium histolyticum, E.C. 3.4.24.3) were obtained from Sigma Aldrich (St. Louis, Mo.). Barron® artificial anterior chambers were purchased from Katena Eye Instruments (Denville, N.J.). The VEGA LED-based UV emitter was purchased from Costruzione Strumenti Oftalmici (Firenze, Italy). The Excells E24 incubator shaker series was purchased from New Brunswick Scientific (Enfield, Conn.).
# The corneas were obtained in OptiZol® solution and stored at 4° C. until use. All experiments were performed within 2 weeks from the date of death of the donor. Each cornea was fitted into a Barron® artificial anterior chamber with normal balanced salt solution followed by mechanical removal of 8 mm of the central corneal epithelium with a blunt blade.
# Conventional riboflavin-UVA (R+UVA) crosslinking was performed in an ex vivo fashion according to the Dresden protoco.^1-2 50 mg of riboflavin 5′-phosphate was added to 50 mL of dextran (w/w) and mixed thoroughly to make 0.1% riboflavin (1 mg/mL) solution. All solutions were covered in aluminum foil for protection from room UV light and stored at 4° C. until use. Riboflavin solution was topically administered every 5 minutes onto the surface of the de-epithelialized cornea for total instillation period of 30 minutes. UVA 370 nm light (X-Vega, Sooft SPA) was then focused onto the surface of the cornea at an irradiance of 3 mW/cm^2 (5.4 J/cm^2 fluence) for 5 minutes. The five-minute UVA exposure sequence was repeated 5 more times for a total UVA exposure time of 30 minutes. Prior to each 5-minute UVA treatment sequence, one drop of balanced salt solution and one drop of riboflavin were administered onto the surface of the cornea.
# Each de-epithelialized cornea was placed on a Barron® artificial anterior chamber and underwent a treatment protocols (below) that included either topical verteporfin solution alone, non-thermal laser alone, or a combination of both topical verteporfin and non-thermal laser. Verteporfin solution was applied topically using the same formulation that is administered intravenously for the treatment of choroidal neovascularization^3-8 (6 mg/mL, Visudyne; Novartis Ophthalmics AG, Hettingen, Switzerland). A 689 nm wavelength non-thermal laser (Opal Photoactivator; Coherent Inc., Santa Clara, Calif.) was applied using a spot size of 7 mm at a power intensity of 600 mW/cm^2.
# 1. Topical verteporfin (V), without laser: Verteporfin solution was topically administered onto the surface of a de-epithelialized cornea every minute for 15 minutes. The tissue was not exposed to laser therapy.
# 3. Combined treatment of verteporfin with non-thermal laser for one treatment sequence (V+NTL-1): Verteporfin, which was prepared at a dose of 6 mg/ml (one drop per minute) was applied onto the de-epithelialized corneas every minute for fifteen minutes followed by one NTL treatment sequence. A 689 nm nonthermal laser light was delivered directly over a cornea with spot sizes (7 mm) at a power intensity of 600 mW/cm^2 for one minute only.
# 4. Combined treatment of Verteporfin with Non-Thermal Laser Therapy for six treatment sequences (V+NTL-6): Verteporfin solution (6 mg/ml) was topically applied every minute for fifteen minutes followed by six NTL sequences. One drop of balanced salt solution and one drop of verteporfin was administered between each treatment sequence. […]
# [3] = tested on: Human research corneas (corneal strips); test: Tensile strength testing (strip extensometry); conditions: for maximum stress observed prior to failure: tensile test at 0.025 mm/sec until failure, untreated 3.02 (FIG. 8); for maximum modulus value (tensile): versus untreated corneas (FIG. 9B); for instantaneous modulus values at 4%, 6%, and 8% strain (toe region): versus untreated corneas (FIG. 11)
# Procedure: as §1
# A rectangular strip of corneal tissue (approximately 3 mm wide and 14 mm long) was cut from each sample with a scalpel. The corneal strips were individually clamped between the two jaws of a microcomputer-controlled biomaterial tester (Minimat, Rheometriv Scientific GmbH).^15-20 Tensile testing was performed using a Shimadzu AGS-X (Cambridge Polymer Group, Inc. 56 Roland St suite 310, Boston, Mass. 02129, United States) load frame equipped with a 50 N load cell and pneumatic grips, which were lined with sandpaper for prevent tissue slippage. The pneumatic grips compensated for any dimensional change as the samples were stretched and allowed a fixed grip pressure of 35 pressure per square inch (psi) to be applied. The initial grip separation was set to 4.5 mm and tested at a rate of 0.025 mm/sec until failure. The strain (ε) was then increased linearly at a certain velocity, and the relative stress (s) was measured.
# In this study, strip extensometry was performed using rectangular strips of corneal tissue that was extracted from untreated and treated corneas. The maximum stress observed prior to failure, the maximum modulus values, and the instantaneous modulus values at specific strain percentages were calculated. The stress-strain data can be broadly separated into two regions: an initial toe region that covers strain values typically observed in vivo, and the region covering extreme deformations not likely to be observed in vivo.
# Finally, the initial toe region of each sample group was compared. The stress-strain data was offset such that the sample length at a stress of 0.02 MPa was defined as 0% strain (this offset is equivalent to defining a pre-stress of […] at the start of the tensile test). A representative plot showing the toe region of the tensile data for one specimen from each sample group is shown in FIG. 10, and the instantaneous modulus values at 4%, 6%, and 8% strain for each sample group are shown in FIG. 11.
# Human research corneas [4] = test: Creep testing under constant force of 15 N; conditions: constant force 15 N, between 0 and 4.25 minutes; untreated −3.46
# Procedure: The biomechanical properties of untreated corneas and corneas treated with R+UVA and V+NTL6 were measured using gross observation, compression, creep and tensile strength testing. The corneas were stored in Optisol GS and refrigerated at 4° C. until the time of testing. […] The sample was held under a constant force of 15 N and the strain was measured over a period of 4.25 minutes. Creep testing has been used to evaluate the biomechanical strength of tissue, such as the cornea, by applying a constant stress and monitoring the rate of deformation ^21In this study, cornea tissue was kept under a constant stress using a compression force of 15 N and then the slope of the strain-time curve was calculated between 0 and 4.25 minutes and represented the rate of tissue deformation.
# Human research corneas [5] = test: Compression testing (Q800 DMA), Young's modulus; conditions: for slope of the stress-strain compression data versus untreated corneas: FIG. 5; for Young's modulus: linear fit of stress-strain curve between 0.08 and 0.10 MPa, untreated 0.43 MPa
# Procedure: as §1
# Compression testing was performed using a Q800 DMA (TA instruments). The tissue was placed within a submersion clamp and centered beneath a custom 8 mm diameter compression plate, as shown in FIG. 2. The submersion clamp was filled with 1× phosphate buffered saline (PBS) solution to prevent the sample from drying out during the test.
# The elasticity of any tissue can be determined by measuring the stress (force on a cross-section point) and its relative strain (proportional deformation)^12,14. The Young's modulus is the proportion between the stress and strain values and reflects the elasticity of the tissue. A small Young's modulus value reflects more elasticity of a material and is represented in units of Newton/m^2.
# Young's modulus was calculated as a linear fit of the final portion of the stress-strain curve, between stress values of 0.08 and 0.10 MPa (FIG. 6). Tissue treated by R+UVA and V+NTL6 had statistically larger moduli than untreated corneas. Corneas treated by V+NTL6 appeared to be slightly more stiff (0.80 vs 0.43 MPa, p<0.005) than those treated by R+UVA (0.70 vs 0.43 MPa, p<0.05), however this difference was not statistically significant.
"time to dissolution in collagenase A ([2]; listed as riboflavin-UVA, sodium salt hydrate)",time to dissolution in collagenase A ([2]; sodium salt hydrate),Collagenase time to dissolution [2],time to dissolution in collagenase A [2],Collagenase time to dissolution ([2]; listed as V-NLT-1),Collagenase time to dissolution ([2]; listed as V-NLT-6),Compound,rigidity on gross examination versus untreated corneas (Human research corneas [1]),maximum stress observed prior to failure [3],maximum modulus value (tensile) [3],"instantaneous modulus values at 4%, 6%, and 8% strain (toe region) [3]",creep rate (slope of the strain-time curve) (Human research corneas [4]),slope of the stress-strain compression data versus untreated corneas (Human research corneas [5]),Young's modulus (Human research corneas [5]),Gross observation (Human research corneas [1]),Gross observation (Human research corneas [1]; listed as V-NLT-1),Gross observation (Human research corneas [1]; listed as V-NLT-6)
20.06 ± 1.23 h,20.06 h,–,–,–,–,"Cc1cc2nc3c(=O)[nH]c(=O)nc-3n(C[C@H](O)[C@H](O)[C@H](O)COP(=O)([O-])O)c2cc1C.[Na+] [R+UVA, Riboflavin 5′-phosphate sodium salt hydrate]",much more rigidity than untreated corneas,larger stress values prior to failure,statistically larger maximum modulus values than untreated corneas,no statistically significant difference was observed,"faster creep rate, but the difference was not statistically significant",steeper,0.70 MPa,–,–,–
–,–,5.95 ± 0.33 h,5.95 h,–,–,verteporfin,–,–,–,–,–,–,–,No rigidity,–,–
–,–,–,5.96 ± 0.39 h,5.96 ± 0.39 h,–,verteporfin [V+NTL1],–,–,–,–,–,–,–,–,No rigidity,–
–,–,–,19.75 ± 0.95 h,–,19.75 ± 0.95 h,verteporfin [V+NTL6],much more rigidity than untreated corneas,7.67,statistically larger maximum modulus values than untreated corneas,statistically larger modulus values than untreated corneas,−1.87,steeper,0.80 MPa,–,–,Cornea rigid
